Measurements from patent USRE30241E, “Esters of 3-(hydroxy or hydroxymethyl)-4-hydroxyphenyl aminomethyl ketones” (Sterling Drug Inc., priority 1970, dated 1980).

Columns and labels:
[1] = test system: carbachol- or histamine-induced bronchoconstriction; test: Bronchodilator Test Method I, anesthetized dog, intravenous activity; assay type: in vivo; settings: Canis lupus familiaris, read-out: Bronchodilatation; for inhibition in vivo at 0.07 mg/kg: 70 mcg/kg i.v.; for inhibition in vivo at 0.14 mg/kg: 140 mcg/kg i.v.; for inhibition in vivo at 0.28 mg/kg: 280 mcg/kg i.v.
Outline: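 Pentobarbital-anesthetized (30 mg/kg i.v.), open-chest, artificially ventilated dogs were given i.v. carbachol (4-6 µg/kg) or histamine diphosphate (35-45 µg/kg). Test compound was given i.v. mixed with, after, or 1-10 min before the constrictor.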

diastolic blood pressure = test: Effect on diastolic blood pressure in the anesthetized dog; assay type: in vivo
Outline: (§1)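 Anesthetized dogs, mostly spontaneously breathing, some open-chest, given rapid intravenous injections. Heart rate by electrocardiograph with blood pressure recorded simultaneously, every 0.5-1 minute for 10 minutes then every 2-5 minutes until recovery; several doses or compounds sometimes tested alternately in one dog.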

heart rate = test: Cardiovascular studies: effect on the heart rate in the anesthetized dog; assay type: in vivo
Outline: as §1

[2] = test system: guinea pig bronchioles constricted by carbachol; test: Bronchodilator Test Method II, in vitro perfused guinea pig lung
Method: In this method bronchodilator activity in vitro was determined by testing the effect of graded doses of the test compounds on guinea pig bronchioles constricted by carbachol, using the technique reported by Sollman and von Oettingen, Proc. Soc, Exp. Biol. Med., 25,692 (1928) as modified by Tainter, Pedden, and James, J. Pharm. Exp. Ther., 51, 371 (1934) and by Luduena, von Euler, Tullar, and Lands, Arch. intern. Pharmacol., III, 392 (1957).

[3] = test system: carbachol- or histamine-induced bronchoconstriction; test: Bronchodilator Test Method I, anesthetized dog, intraduodenal activity; assay type: in vivo; settings: Canis lupus familiaris, read-out: Bronchodilation; for inhibition in vivo at 0.07 mg/kg: 70 mcg/kg (salt) intraduodenal; for inhibition in vivo at 0.14 mg/kg: 140 mcg/kg (salt) intraduodenal; for inhibition in vivo at 0.28 mg/kg: 280 mcg/kg (salt) intraduodenal
Outline: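 Pentobarbital-anesthetized (30 mg/kg i.v.) open-chest dogs of 9-18 kg, artificially ventilated; airway pressure recorded via tracheal cannula transducer. Test solution injected intraduodenally; from 5 min, i.v. carbachol (4-6 μg/kg) or histamine diphosphate (35-45 μg/kg) challenges every 30-60 min gauged degree and duration of bronchodilation.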

[4] = Solubility and pH of salts; settings: dimethyl sulfoxide, organic solvent or mixture

**Q.** Which results are given for `Cc1ccc(C(=O)Oc2ccc(C(O)CNC(C)(C)C)cc2OC(=O)c2ccc(C)cc2)cc1` (stereo not drawn) [Example 30, 3,4-bis(p-toluyloxy)-alpha-(tert-butylaminomethyl)benzyl alcohol methanesulfonate]?
**A.** inhibition in vivo at 0.07 mg/kg ([1]; 5 min, 5 min): 54%; inhibition in vivo at 0.14 mg/kg ([1]; 5 min, 5 min): 65%; inhibition in vivo at 0.28 mg/kg ([1]; 5 min, 5 min): 83%; inhibition in vivo at 0.07 mg/kg ([1]; 0.5 h, 30 min): 63%; inhibition in vivo at 0.14 mg/kg ([1]; 0.5 h, 30 min): 76%; inhibition in vivo at 0.28 mg/kg ([1]; 0.5 h, 30 min): 88%; inhibition in vivo at 0.07 mg/kg ([1]; 1 h, 60 min): 61%; inhibition in vivo at 0.14 mg/kg ([1]; 1 h, 60 min): 69%; inhibition in vivo at 0.28 mg/kg ([1]; 1 h, 60 min): 75%; inhibition in vivo at 0.07 mg/kg ([1]; 2 h, 120 min): 52%; inhibition in vivo at 0.14 mg/kg ([1]; 2 h, 120 min): 55%; inhibition in vivo at 0.28 mg/kg ([1]; 2 h, 120 min): 72%; inhibition in vivo at 0.14 mg/kg ([1]; 3 h, 180 min): 62%; inhibition in vivo at 0.28 mg/kg ([1]; 3 h, 180 min): 64%; inhibition in vivo at 0.07 mg/kg ([1]; 4 h, 240 min): 37%; inhibition in vivo at 0.28 mg/kg ([1]; 4 h, 240 min): 50%; inhibition in vivo at 0.14 mg/kg ([1]; 4.5 h, 270 min): 42%; Mean Decrease in Diastolic Blood Pressure (diastolic blood pressure; 70 meg/kg (salt) i.v.): 2%; Mean Decrease in Diastolic Blood Pressure (diastolic blood pressure; 140 meg/kg (salt) i.v.): 11%; Mean Decrease in Diastolic Blood Pressure (diastolic blood pressure; 280 meg/kg (salt) i.v.): 11.5%; Mean Maximal Increase in the Heart Rate (heart rate; 70 mcg/kg (salt) i.v.): 9%; Mean Maximal Increase in the Heart Rate (heart rate; 140 mcg/kg (salt) i.v.): 15%; Mean Maximal Increase in the Heart Rate (heart rate; 280 mcg/kg (salt) i.v.): 28%; ED50 ([2]; carbachol (Doryl) 1:5 million): 3.2 µg (base); Duration, Mean ([2]; dose 10 mcg (base)): 60 ± 9.6 min; inhibition in vivo at 0.07 mg/kg ([3]; 10 min, 10 min, mean of 3 dogs): 38%; inhibition in vivo at 0.14 mg/kg ([3]; 10 min, 10 min): 30%; inhibition in vivo at 0.28 mg/kg ([3]; 10 min, 10 min): 75%; inhibition in vivo at 0.07 mg/kg ([3]; 0.5 h, 30 min): 45%; inhibition in vivo at 0.14 mg/kg ([3]; 0.5 h, 30 min): 35%; inhibition in vivo at 0.28 mg/kg ([3]; 0.5 h, 30 min): 71%; inhibition in vivo at 0.07 mg/kg ([3]; 1 h, 60 min): 42%; inhibition in vivo at 0.14 mg/kg ([3]; 1 h, 60 min): 36%; inhibition in vivo at 0.28 mg/kg ([3]; 1 h, 60 min, mean of 3 dogs): 64%; inhibition in vivo at 0.07 mg/kg ([3]; 2 h, 120 min, mean of 3 dogs): 42%; inhibition in vivo at 0.14 mg/kg ([3]; 2 h, 120 min): 45%; inhibition in vivo at 0.28 mg/kg ([3]; 2 h, 120 min): 56%; inhibition in vivo at 0.07 mg/kg ([3]; 3 h, 180 min): 42%; inhibition in vivo at 0.14 mg/kg ([3]; 3 h, 180 min): 40%; inhibition in vivo at 0.28 mg/kg ([3]; 3 h, 180 min): 50%; inhibition in vivo at 0.07 mg/kg ([3]; 4 h, 240 min, mean of 3 dogs): 25%; inhibition in vivo at 0.14 mg/kg ([3]; 4 h, 240 min): 47%; inhibition in vivo at 0.28 mg/kg ([3]; 4 h, 240 min, mean of 3 dogs): 45%; inhibition in vivo at 0.28 mg/kg ([3]; 5 h, 300 min, mean of 3 dogs): 37%; solubility [4]: ≥ 10 mg/mL
